Measured values as given in publication PMC3248963 (Bioorganic & medicinal chemistry letters, 2011).
Where no end group is shown, it is not given here.

Key:
GLP1 receptor = details: cited from earlier work
[1] = system: dipeptidyl peptidase 4 (DPP4); details: cited from earlier work
[2] = target: human GLP1 receptor (CHO-GLP1R cells) (Homo sapiens, UniProt P43220); experiment: intracellular cAMP response assay, wild type receptor; assay type: cell-based; details: EC50 values
M397L GLP1 receptor = M397L GLP1 receptor (Homo sapiens, UniProt P43220, M397L); experiment: intracellular cAMP response assay, M397L mutant receptor; assay type: cell-based
Sequence of M397L GLP1 receptor (P43220 24-463 M397L): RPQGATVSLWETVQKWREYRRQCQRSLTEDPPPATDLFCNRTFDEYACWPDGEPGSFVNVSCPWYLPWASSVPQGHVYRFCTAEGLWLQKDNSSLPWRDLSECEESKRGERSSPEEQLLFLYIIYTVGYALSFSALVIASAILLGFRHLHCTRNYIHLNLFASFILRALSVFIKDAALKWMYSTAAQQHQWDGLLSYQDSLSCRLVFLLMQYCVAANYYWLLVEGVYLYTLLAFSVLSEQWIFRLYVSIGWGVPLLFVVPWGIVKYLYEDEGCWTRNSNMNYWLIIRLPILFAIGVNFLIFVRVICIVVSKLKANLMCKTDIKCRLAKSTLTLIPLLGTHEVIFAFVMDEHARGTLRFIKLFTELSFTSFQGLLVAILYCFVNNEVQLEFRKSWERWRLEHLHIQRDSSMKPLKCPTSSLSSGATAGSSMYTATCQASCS

[3] = target: GLP1 receptor (CHO-GLP1R cell membranes) (Homo sapiens, UniProt P43220); experiment: photoaffinity labeling of wild type receptor by radioiodinated Bpa-NRTFD
Sequence of GLP1 receptor (CHO-GLP1R cell membranes) (P43220 24-463): as the sequence (P43220 24-463 M397L) above, with L374M counted along it

Sequence of human GLP1 receptor (CHO-GLP1R cells) (P43220 24-463): as the sequence (P43220 24-463 M397L) above, with L374M counted along it

| EC50 [2] | EC50 (M397L GLP1 receptor) | IC50 [3] | Compound | blockade of agonist action by high affinity peptide antagonist (GLP1 receptor) | degradation by DPP4 [1] |
| --- | --- | --- | --- | --- | --- |
|  |  |  | CC[C@H](C)[C@H](NC(=O)[C@H](Cc1ccccc1)NC(=O)[C@H](CCC(=O)O)NC(=O)[C@H](CCCCN)NC(=O)[C@H](C)NC(=O)[C@H](C)NC(=O)[C@H](CCC(N)=O)NC(=O)CNC(=O)[C@H](CCC(=O)O)NC(=O)[C@H](CC(C)C)NC(=O)[C@H](Cc1ccc(O)cc1)NC(=O)[C@H](CO)NC(=O)[C@H](CO)NC(=O)[C@@H](NC(=O)[C@H](CC(=O)O)NC(=O)[C@H](CO)NC(=O)[C@@H](NC(=O)[C@H](Cc1ccccc1)NC(=O)[C@@H](NC(=O)CNC(=O)[C@H](CCC(=O)O)NC(=O)[C@H](C)NC(=O)[C@@H](N)Cc1c[nH]cn1)[C@@H](C)O)[C@@H](C)O)C(C)C)C(=O)N[C@@H](C)C(=O)N[C@@H](Cc1c[nH]c2ccccc12)C(=O)N[C@@H](CC(C)C)C(=O)N[C@H](C(=O)N[C@@H](CCCCN)C(=O)NCC(=O)N[C@@H](CCCNC(=N)N)C(N)=O)C(C)C [GLP1] | competitively blocked | rapidly degraded |
| 1600 ± 500 nM | 2200 ± 800 nM | 3100 ± 800 nM | NRTFD [NRTFD] |  |  |
